Test results as given in patent publication US20140370510A1, “MODULATION OF PEPTIDOME USING HISTONE DEACETYLASE INHIBITOR” (University of South Florida (A Florida Non-Profit …, priority 2012, published 2014).

Experiments:
Assay type in all cases: cell-based
[1] = system: CLIP occupancy of MHC class II (HLA-DR) on CIITA-4 melanoma cells, WM9 melanoma cells and Raji B cells; assay: Flow cytometry of surface CLIP and HLA-DR (CLIP/HLA-DR ratio) after HDACi treatment; details: 5 μM Entinostat or 3 μM Vorinostat, 40 hours, vs DMSO
Experimental: To determine whether HDACi's could affect anti-tumor immunity, major histocompatibility (MHC) class II positive melanoma cells were treated with HDACi's and assayed for potential alterations in the binding of MHC class II to antigenic peptides. More specifically, melanoma cells were treated with Entinostat or Vorinostat, two HDACi's currently used to treat patients. The CIITA-4 melanoma cells were previously transformed with an expression vector for the MHC class II transactivator, CIITA, which leads to constitutive MHC class II expression. The WM9 melanoma cells have naturally occurring CIITA and MHC class II expression. Raji B cells also constitutively express both CIITA and MHC class II.
Cells were cultured in RPMI (antibiotic supplements and 10% fetal calf serum) and treated with either DMSO, 5 μM Entinostat, 3 μM Vorinostat, or 400 units/ml IFN-γ. […] Surface expression of HLA-DR, the most significant MHC class II protein, was detected using flow cytometry. Surface expression of the class II associated invariant chain peptide (CLIP) was also detected using flow cytometry. […]
Samples were analyzed on a BD LSR II flow cytometer (San Jose, Calif.) equipped with 405 nm, 488 nm and 633 nm lasers using BD FacsDiva 6.1.3 software. FITC, PE and DAPI dyes were detected using 530/30, 575/26 and 450/50 band pass filters, respectively. […]

[2] = system: cathepsin L1 mRNA in Raji B-cells; assay: RT-PCR assay of cathepsin L1 mRNA in Raji B-cells; details: normalized to GAPDH mRNA and DMSO, 40 hours
Experimental: (§1) An RT-PCR assay of cathepsin L1 mRNA was performed in treated Raji B-cells. More specifically, RNA was extracted from the DMSO, Entinostat, Vorinostat, and IFN-γ treated Raji B-cells described in Example 1 using an RNeasy Mini Kit< Qiagen cat #74106. RNA quality was verified using a bioanalyzer (Agilent). Reverse transcription of total RNA (1 μg) to cDNA was done with a High Capacity RNA-to-cDNA Master Mix (Applied Biosystems part of Life Technologies, Foster City, Calif., catalog number 4390777). In a 0.2 ml PCR tube, 5×Complete Master Mix (4.0 μl) and nuclease-free H20 were mixed with 1 μg RNA for a total reaction volume of 20 μL. The sample was incubated at 25° C. for 5 minutes, 42° C. for 30 minutes and then 85° C. for 5 minutes in a DNA Engine Peltier thermal cycler (Bio-Rad). qPCR target related: cathepsin L1, CTSL1, RefSeq-NM13 001912.4, amplicon length-85 bp, Assay ID Details-Hs00377632_ml; Cathepsin S, CTSS, RefSeq-NM_004079.4, amplicon length-70 bp, Assay ID Details Hs00175407_ml; GAPDH-glyceraldehyde-3-phosphate dehydrogenase, Gapdh, RefSeq-NM_00246.3, amplicon length-58 bp, Assay ID Details-Hs03929097_gl.
(§2) All primers and probes were from Applied Biosystems Assay-on-Demand. […] The GAPDH was used as an endogenous control for relative qPCR quantification. […]

[3] = system: cathepsin L1 mRNA in WM9 melanoma cells; assay: RT-PCR assay of cathepsin L1 mRNA in WM9 melanoma cells; details: normalized to GAPDH mRNA and DMSO
cathepsin S mRNA = assay: RT-PCR assay of cathepsin S mRNA; details: normalized to GAPDH mRNA and DMSO
Experimental: as §1, §2

Cathepsin L1 = Cathepsin L1 antibody (ctsl1) staining intensity, bright field microscopy; details: 5 μM Entinostat vs DMSO; p-value <0.0004
Experimental: In FIG. 6, samples were viewed with a Leica DMLB upright bright field microscope and a 20×/0.5NA HC PL fluortar objective (Leica Microsystems GmbH, Wetzlar, Germany). Transmitted bright light was used without contrasting methods. Gain, offset, and other acquisition settings were identical for all samples within each group. The number of nuclei was determined with auto-threshold segmentation on the cell morphology. The nuclei segmentation was further refined by size and shape of the objects created from the initial segmentation. ImagePro Plus v6.1 (Media Cybernetics, Bethesda, Md.) software was then used to determine the ctsl1 staining intensity (ctsl1 is cathepsin L1 antibody). Positive cells were established as >20DR over background for each 8bit image (0-255DR). The number of pixels over this threshold per cell was used to determine the differences between the Entinostat and DMSO groups. Each image and analysis was blinded and completed in triplicate (p-value <0.0004).

Nc1ccccc1NC(=O)c1ccc(CNC(=O)OCc2cccnc2)cc1 [Entinostat]
amount of CLIP associated with MHC Class II on the APC surface (CLIP occupancy) [1]: reduction in the amount of CLIP | cathepsin L1 mRNA induction [2]: induces cathepsin L1 mRNA | cathepsin L1 mRNA induction [3]: induces cathepsin L1 mRNA | cathepsin S mRNA induction (cathepsin S mRNA): no effect | induction of Cathepsin L1 (ctsl1 staining intensity, FIG. 5) (Cathepsin L1): significant induction

O=C(CCCCCCC(=O)Nc1ccccc1)NO [Vorinostat, Suberoylanilide hydroxamic acid]
amount of CLIP associated with MHC Class II on the APC surface (CLIP occupancy) [1]: reduction in the amount of CLIP | cathepsin L1 mRNA induction [2]: no effect | cathepsin L1 mRNA induction [3]: no effect | cathepsin S mRNA induction (cathepsin S mRNA): no effect
